Experiments:
[1] = tested on: BxPC3 pancreatic cancer cells; experiment: MTT cytotoxicity assay, BxPC3 cells, 72 h; assay type: cell-based, human; settings: for IC50: Homo sapiens, BXPC-3, free compound in DMSO, MTT, 72 h; for BxPC3 SI: selectivity index = IC50 of NHDF/IC50 of BxPC3, free compound
Method: (§1) In vitro cell culture procedures were performed under aseptic conditions and cultures were maintained in an Innova CO-180 incubator (New Brunswick Scientific, Edison, NJ, USA). Pancreatic cancer cells, namely, BxPC-3 (primary pancreatic tumor) and AsPC-1 (from ascites of a patient with pancreatic cancer) cells, were cultured in RPMI-1640 medium supplemented with 10% heat inactivated fetal bovine serum (FBS), GlutaMAX™ and antibiotic-antimycotic. NHDF cells were cultured in alpha-MEM medium supplemented with 10% heat-inactivated FBS, GlutaMAX™ and antibiotic-antimycotic. Culture was carried out at 37 °C in a humidified atmosphere containing 5% CO2.
(§2) The effect of CA and its derivatives on cell viability was determined using a quantitative colorimetric MTT assay adapted from Mosmann. Cells were seeded in 96-well plates (5 × 10^3/well), in appropriate complete cell culture medium, for 24 h. The cells were treated with caffeic acid derivatives (in the range of 18.75–150 μM), DMSO (an equivalent volume of DMSO was used as a negative control, maximal concentration was 0.4% v/v) or liposomal formulations for 72 h. The medium containing tested chemicals was removed and MTT solution (working solution: stock 0.5 mg/mL was 10 times diluted in medium) was added to the wells, and the plates were incubated for a further 3 h. Subsequently, the MTT solution was replaced with DMSO (50 μL/well) to dissolve the purple formazan crystals. Absorbance was measured at 560 nm with a reference wavelength of 670 nm on an Asys UVM 340 Microplate Reader (Cambridge, UK). Results were expressed as the percentage of surviving cells, with respect to the control (the untreated cells) calculated as: Cell Viability (%) = (AT/AC) × 100(2) where: • AT = Absorbance of the treatment well (treated cells); • AC = Absorbance of the control well (not treated cells).
(§3) IC50 values were calculated using GraphPad Prism for Windows (GraphPad Software, La Jolla, CA, USA). The degree of selectivity of the CA derivatives against pancreatic cancer cells was expressed by the selectivity index (SI) where: SI = IC50 normal cells/IC50 cancer cells(3)
(§4) The purpose of this study was to obtain a preliminary insight into the anticancer activity of a series of caffeic acid derivatives. In order to determine the in vitro cytotoxicity of the resynthesized compounds, the activity of CA and twelve derivatives (Table 1), were screened against two human PC cell lines, BxPC3 and AsPC1, derived from primary and metastatic tumors, respectively. Since we were also interested in evaluating the degree of selectivity of the synthetized derivatives, we decided to use normal human dermal fibroblasts as control, healthy, cells. This made it possible to determine the specificity of the tested substances, in terms of their selectivity index towards pancreatic cancer cells. The cytotoxicity of the examined compounds was estimated using the classic MTT assay, which is based on the detection of the activity of oxidoreductive enzymes (mainly mitochondrial succinate dehydrogenase), which are present only in living, metabolically active cells. During the experiments, cells were incubated for 72 h in the presence of increasing concentrations of CA and the series of CA derivatives, in the range of 18.75–150 μM. […] Untreated cells were tested as the control group.

[2] = tested on: AsPC1 pancreatic cancer cells; experiment: MTT cytotoxicity assay, AsPC1 cells, 72 h; assay type: cell-based, human; settings: for IC50: Homo sapiens, ASPC1, free compound in DMSO, MTT, 72 h; for AsPC1 SI: selectivity index = IC50 of NHDF/IC50 of AsPC1, free compound
Method: as §1, §2, §3, §4

[3] = tested on: NHDF (normal human dermal fibroblasts); experiment: MTT cytotoxicity assay, NHDF control cells, 72 h; assay type: cell-based; settings: free compound in DMSO
Method: as §1, §2, §3, §4

[4] = Compound encapsulation efficiency (EE) in liposomes; assay type: physicochemical; settings: SPC:DSPE-PEG2000 95:5 mol/mol liposomes
Method: Caffeic acid derivatives encapsulated liposomes were prepared using the dry lipid film and extrusion method. A 1 mL solution of 10 mg of total lipids in chloroform (SPC:DSPE-PEG2000 95:5 mol/mol) were mixed with 1 mg of caffeic acid esters in methanol. Subsequently, solvents were removed from the samples via evaporation under a stream of nitrogen-gas to form a homogeneous lipid film on the flask wall and dried for 2 h at low pressure using a Savant Modulyo lyophilizer (Thermo Fisher Scientific, Waltham, MA, USA). Then, the lipid film was suspended by addition of 1 mL of sterile normal saline (0.9% NaCl), with mixing, until it was completely hydrated. […]
The lipid concentration was determined by the Stewart assay. The amount of (7) was determined spectrophotometrically at 290 nm and was calculated from the appropriate calibration curve according to the method described previously:EE (%) = CAf(mg/mL)/Lf(mg/mL)/CAi(mg/mL)/Li(mg/mL) × 100(1) where CAi(mg/mL)/Li(mg/mL) represents the (caffeic acid derivate)-to-lipid ratio at the point when the compound was mixed with the liposomes, and CAf(mg/mL)/Lf(mg/mL) is the final (caffeic acid derivate)-to-lipid ratio of the liposomes.

[5] = tested on: MIAPACa-2 pancreatic cancer cell line; set-up: method as in PMID 26373299; settings: 25 μg/mL (87 μM), 48 h incubation; cited from earlier work
[6] = tested on: BxPC3 cells; set-up: method as in PMID 18824880; settings: 10 μg/mL (35 μM); cited from earlier work
[7] = tested on: PANC-1 pancreatic cancer cell line; set-up: method as in PMID 26373299; settings: 25 μg/mL (87 μM), 48 h incubation; cited from earlier work

## CC(=O)/C=C/c1cccc(O)c1 [(8)]
[1]
  IC50: 30.5 ± 4.55 µM
  BxPC3 SI: 2.61
[2]
  IC50: 19.2 ± 0.72 µM
  AsPC1 SI: 4.14
[3]
  IC50: 79.7 ± 6.3 µM

## CC(=O)/C=C/c1ccc(O)cc1O [(10)]
[1]
  IC50: 34.1 ± 1.74 µM
  BxPC3 SI: 1.60
[2]
  IC50: 35.3 ± 1.28 µM
  AsPC1 SI: 1.54
[3]
  IC50: 54.6 ± 2.25 µM

## CC(=O)/C=C/c1ccccc1O [Compound (7)]
[4]
  Encapsulation efficiency: 93%
[1]
  IC50: 22.4 ± 2.52 µM
  BxPC3 SI: 2.73
[2]
  IC50: 18.7 ± 0.24 µM
  AsPC1 SI: 3.27
[3]
  IC50: 61.1 ± 1.95 µM

## COc1cc(/C=C/C(C)=O)ccc1O [(12)]
[1]
  IC50: 29.9 ± 5.13 µM
  BxPC3 SI: 1.72
[2]
  IC50: 38 ± 6.12 µM
  AsPC1 SI: 1.36
[3]
  IC50: 51.5 ± 1.2 µM

## COC(=O)/C=C/c1ccc(O)c(O)c1O [(5)]
[1]
  IC50: 46.6 ± 3.47 µM
[2]
  IC50: 42.5 ± 3.57 µM
[3]
  IC50: 98.8 ± 9.56 µM

## O=C(/C=C/c1ccc(O)c(O)c1)OCCc1ccccc1 [CAPE, caffeic acid phenethyl ester]
[5]
  Reduction of proliferation rate: 65.7%
[6]
  Inhibition: 80.4%
[7]
  Reduction of proliferation rate: 93.0%

## CC(=O)/C=C/c1ccc(O)c(O)c1O [(11), 4-(2’, 3’, 4’-trihydroxyphenyl)-3 (E)-buten-2-one]
[1]
  IC50: 21.7 ± 1.51 µM
  BxPC3 SI: 2.84
[2]
  IC50: 18.4 ± 0.74 µM
  AsPC1 SI: 3.36
[3]
  IC50: 61.7 ± 10.5 µM

## CC(=O)/C=C/c1ccc(O)cc1 [(9)]
[1]
  IC50: 28.1 ± 3.36 µM
  BxPC3 SI: 2.11
[2]
  IC50: 25.6 ± 2.17 µM
  AsPC1 SI: 2.31
[3]
  IC50: 59.2 ± 11.6 µM

From article PMC7766656, “Evaluation of the In Vitro Cytotoxic Activity of Caffeic Acid Derivatives and Liposomal Formulation against Pancreatic Cancer Cell Lines” (Materials, 2020)
